US10603323B2, “Combination of histamine-3 receptor inverse agonists with acetylcholinesterase inhibitors” (priority 2016, dated 2020)
Where a name gives a salt, the structure may show the parent alone. Read-outs that look alike come from different tables or passages of the source.

Experiments:
[1] = system: extracellular levels of acetylcholine in medial prefrontal cortex; experiment: Acetylcholine modulation in medial prefrontal cortex (microdialysis); type: in vivo, male Wistar rats; conditions: for mean AUC of percent change in acetylcholine levels, combination compared to donepezil alone: test compound in combination with donepezil (1 mg/kg, s.c.)
Text: Male Wistar rats (240-300 g body weight) were stereotaxically implanted with a microdialysis guide cannula in medial prefrontal cortex (mPFC; AP: +3.2 mm, ML: −0.5 mm, DV: −3.0 mm) under isoflurane anesthesia. Co-ordinates were taken according to atlas for the rat brain (Paxinos and Watson 2004) with reference points taken from bregma and vertical from the skull. The rats were allowed to recover individually for four days in a round bottom Plexiglas bowl with free access to feed and water.
After surgical recovery of 4 days, male Wistar rats were connected to dual quartz lined two-channel liquid swivel (Instech, UK) on a counter balance lever arm, which allowed unrestricted movements of the animal. Sixteen hours before start of the study, a pre-equilibrated microdialysis probe (2 mm dialysis membrane) was inserted into mPFC through the guide cannula. On the day of study, probe was perfused with artificial cerebrospinal fluid (aCSF; NaCl 147 mM, KCl2.7 mM, MgCl2 1 mM, CaCl2. 2H2O 1.2 mM, pH 7.4) at a flow rate of 1.5 μL/min and a stabilization period of 2 h was maintained. Five basal samples were collected at 20 min intervals prior to the treatment of test Compounds (3 or 10 mg/kg, p.o.) or vehicle. […] Dialysate samples were collected for an additional period of 4 h post treatment of test compounds. Dialysates were stored below −50° C. prior to analysis.
Acetylcholine concentrations in dialysates were quantified using LC-MS/MS based method.
All microdialysis data for acetylcholine was plotted as percent change from mean dialysate basal concentrations with 100% defined as the average of five pre-dose values. […] Statistical significance was considered at a p value less than 0.05. Incorrect probe placement was considered as criteria to reject the data from animal.

[2] = system: stimulation evoked theta levels in dorsal hippocampus; experiment: Theta modulation in dorsal hippocampus of anesthetized rats; type: in vivo, male Wistar rats
Text: Male Wistar rats (240-320 g) were anesthetized by intraperitoneal administration of urethane (1.2 to 1.5 g/kg) for implantation of a catheter in the left femoral vein. The animal was placed in a stereotaxic frame for implanting an electrode (stainless steel wire, Plastics One) into the dorsal hippocampus (AP, −3.8 mm; ML, +2.2 mm; DV, −2.5 mm; Paxinos and Watson, 2004). Bipolar stimulating electrode (untwisted stainless steel wires, separated by 0.75-1.0 mm at their tips, Plastics One) was implanted in the Nucleus Pontis Oralis (NPO; AP, −7.8 mm; ML, 1.8 mm; DV, −6.0 mm; Paxinos and Watson, 2004). Additionally one electrode was implanted into the cerebellum which served as a reference. Hippocampal θ rhythm was evoked via a 6-s electrical stimulation train (20-160 μA, 0.3-ms pulse duration, 250 Hz) delivered to the NPO at a rate of 0.01 trains/s with a Grass S88 stimulator and PSIU6 stimulus isolation unit (Grass Medical Instruments, Quincy, Mass.). EEG was recorded at a rate of 1000 Hz using Ponemah (Version 5.2) software and stored for off-line analysis using NeuroScore (Version 3.0). Baseline amplitude level was achieved by using the current required to elicit θ rhythm to 50% of the maximal amplitude under control conditions.
Power in the θ rhythm frequency in the stimulation period during the 30-min baseline period was calculated and the % changes in these measures post treatment were calculated. […] Statistical significance was considered at a p value less than 0.05.

[3] = biological target: T1, Human histamine-3 receptor (Homo sapiens, UniProt Q9Y5N1); experiment: Determination of Ki value at human histamine-3 receptor (radioligand binding, [3H] R-α-methylhistamine)
T1 construct: expressed in transfected cells; host or cells: CHO cells
Protocol: Test compounds were evaluated according to the following procedures to determine the Ki value at human and rat histamine-3 receptor.
• Receptor source: Rat brain frontal cortex or recombinant human cDNA expressed in CHO cells • Radioligand: [3H] R-α-methylhistamine • Final ligand concentration: [3.0 nM] • Non-specific determinant: R-α-methylhistamine (100 μM) • Reference compound: R-α-methylhistamine • Positive control: R-α-methylhistamine Incubation Conditions:
Increasing concentrations of test compounds or standard were incubated with membrane receptors and radioligand in 5 mM MgC12 and 50 mM TRIS-HCl (pH 7.4) for 60 minutes at room temperature. The reaction was terminated by rapid vacuum filtration onto the glass fiber filters. Radioactivity trapped onto the filters was determined and compared to the control values in order to ascertain any interactions of the test compound(s) with either cloned human or rat receptor binding site.

[4] = test compound (3 or 10 mg/kg, p.o.) in combination with donepezil (1 mg/kg, s.c.)
[5] = Compound 1 (1 mg/kg, i.v.) in combination with donepezil (0.3 mg/kg, i.v.)

T1 sequence (Q9Y5N1 whole entry): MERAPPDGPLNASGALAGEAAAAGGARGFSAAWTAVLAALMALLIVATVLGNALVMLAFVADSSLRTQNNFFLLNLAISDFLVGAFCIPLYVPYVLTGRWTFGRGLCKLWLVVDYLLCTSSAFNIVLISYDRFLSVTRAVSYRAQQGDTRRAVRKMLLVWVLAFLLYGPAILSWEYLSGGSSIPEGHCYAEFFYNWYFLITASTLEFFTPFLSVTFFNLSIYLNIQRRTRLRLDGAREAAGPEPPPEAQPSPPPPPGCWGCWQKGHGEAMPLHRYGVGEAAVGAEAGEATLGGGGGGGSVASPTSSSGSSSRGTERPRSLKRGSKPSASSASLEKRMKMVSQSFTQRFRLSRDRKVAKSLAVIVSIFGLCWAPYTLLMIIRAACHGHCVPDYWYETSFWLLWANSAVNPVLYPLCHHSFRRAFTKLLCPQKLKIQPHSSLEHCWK

## O=C(CN1CCOCC1)Nc1ccc(OC2CCN(C3CCC3)CC2)cc1 [Compound 1, N-[4-(1-Cyclobutylpiperidin-4-yloxy)phenyl]-2-(morpholin-4-yl)acetamide dihydrochloride]
[1]; [4]
  peak acetylcholine levels, % of pre-dose levels: 1676±150 % of pre-dose levels
[1]; test compound (3 or 10 mg/kg, p.o.) in combination with rivastigmine (0.5 mg/kg, s.c.)
  peak acetylcholine levels, % of pre-dose levels: 1276±213 % of pre-dose levels
[1]
  mean AUC of percent change in acetylcholine levels, combination compared to donepezil alone: significantly higher
[1]; test compound in combination with rivastigmine (0.5 mg/kg, s.c.)
  mean AUC of percent change in acetylcholine levels, combination compared to rivastigmine alone: higher
[2]; [5]
  mean AUC of theta power, combination compared to donepezil: significantly higher
  peak theta power levels, % of pre-dose levels: 163±15 % of pre-dose levels

## O=C(CN1CCOCC1)Nc1ccc(OC2CCN(C3CC3)CC2)cc1 [Compound 2, N-[4-(1-Cyclopropylpiperidin-4-yloxy)phenyl]-2-(morpholin-4-yl)acetamide tartrate]
[1]; [4]
  peak acetylcholine levels, % of pre-dose levels: 3057±468 % of pre-dose levels
[1]
  mean AUC of percent change in acetylcholine levels, combination compared to donepezil alone: significantly higher
[3]
  Ki: 19.9 nM

## CC(C)N1CCC(Oc2ccc(NC(=O)CN3CCOCC3)cc2)CC1 [Compound 3, N-[4-(1-Isopropylpiperidin-4-yloxy)phenyl]-2-(morpholin-4-yl)acetamide]
[1]; [4]
  peak acetylcholine levels, % of pre-dose levels: 1874±184 % of pre-dose levels
[1]
  mean AUC of percent change in acetylcholine levels, combination compared to donepezil alone: significantly higher
[3]; recombinant human cDNA expressed in CHO cells, [3H] R-α-methylhistamine 3.0 nM, read-out: Human histamie-3 receptor Ki
  Ki: 8.3 nM

## COc1cc2c(cc1OC)C(=O)C(CC1CCN(Cc3ccccc3)CC1)C2 (centres unmarked) [donepezil, reference compound]
[2]; donepezil alone, 0.3 mg/kg, i.v.
  effect on hippocampal theta power: increase in hippocampal theta power

## CCN(C)C(=O)Oc1cccc([C@H](C)N(C)C)c1 [rivastigmine, reference compound]
[1]; rivastigmine alone, 0.5 mg/kg, s.c., mPFC dialysate
  maximum cortical acetylcholine levels, % of basal levels: 612±104 % of basal levels
